We go through one compound from patent US9545393B2, “Methods and compositions for treating pain” (The Board of Trustees of the Leland Stanford Junior …, priority 2012, dated 2017).

For assay [1], the system named is rats subjected to prostaglandin E2 insult to the right hind paw. Kind of assay: Randall-Selitto paw pressure test, prostaglandin E2-induced hyperalgesia in rats. The assay is classed as in vivo, rat. As to the method:
(§1) Rats. Male Wistar rats (170-190 g) were provided by Charles River Laboratories or Butantan Institute Animal Facility and housed in a temperature-controlled (22±1° C.) and light-controlled (12/12 h light/dark cycle) room. All rats were housed in their surrounding for at least 3 days. Groups of 5-6 rats were used.
Drugs Used. 0.1 ml saline (control), carrageenan (200 μg for rats, 100 μg for mice; Marine Colloids), or prostaglandin E2 (100 ng, Sigma) was administered by intraplantar injection into the right hind paw to induce hyperalgesia. […]
Nociception Assessment. […] Nociceptive response was assessed by the von Frey method for mice and the Randall-Selitto method for rats immediately before and 180 minutes after carrageenan or prostaglandin E2 injection. […]
Randall-Selitto method: Nociceptive threshold was determined using the Randall-Selitto paw pressure test (Ugo-Basile), as previously described (Gutierrez V P, et al., (2008) Crotalphine induces potent antinociception in neuropathic pain by acting at peripheral opioid receptors. European journal of pharmacology 594: 84-92). […]

Assay [2] deals with rats subjected to carrageenan insult to the right hind paw. Kind of assay: Randall-Selitto paw pressure test, carrageenan-induced hyperalgesia in rats. The assay is classed as in vivo, rat. As to the method: as §1
Drugs Used. 0.1 ml saline (control), carrageenan (200 μg for rats, 100 μg for mice; Marine Colloids), or prostaglandin E2 (100 ng, Sigma) was administered by intraplantar injection into the right hind paw to induce hyperalgesia. These doses were chosen based on previous studies by our laboratory groups (Aley K O, et al., (2000) Chronic hypersensitivity for inflammatory nociceptor sensitization mediated by the epsilon isozyme of protein kinase C. The Journal of neuroscience: the official journal of the Society for Neuroscience 20: 4680-4685; Konno K, et al., (2008) Crotalphine, a novel potent analgesic peptide from the venom of the South American rattlesnake Crotalus durissus terrificus. Peptides 29: 1293-1304).
Alda-1 dose (2 mg/kg/per injection, dissolved in 50% PEG/50% DMSO) was established in preliminary studies and given in multiple doses due to its estimated short half-life. Alda-1 was injected subcutaneously to the dorsal side of the neck 15 minutes before carrageenan or saline, and again at 30 and 150 minutes after carrageenan, prostaglandin E2 or saline injection. One subset of animals received Alda-1 only 30 and 150 minutes after carrageenan injection. Where indicated, naloxone (1 mg/kg per injection) or vehicle (saline) was given 10 minutes prior to each Alda-1 treatment to the dorsal side of the neck.
Nociception Assessment. The experimental performer was blinded to both genotype and/or treatments. Nociceptive response was assessed by the von Frey method for mice and the Randall-Selitto method for rats immediately before and 180 minutes after carrageenan or prostaglandin E2 injection. Both mice and rats were acclimated to the testing equipment one day before baseline testing.
Randall-Selitto method: Nociceptive threshold was determined using the Randall-Selitto paw pressure test (Ugo-Basile), as previously described (Gutierrez V P, et al., (2008) Crotalphine induces potent antinociception in neuropathic pain by acting at peripheral opioid receptors. European journal of pharmacology 594: 84-92). The baseline values varied between 65-75 g of force. Animals with baseline out of this range (about 10%) were excluded prior to initiating the study in order to achieve uniform testing.

In assay [3] the target is T1, mutant ALDH2*2 (Homo sapiens, UniProt P05091, E504K).
T1 sequence (P05091 18-517 E504K): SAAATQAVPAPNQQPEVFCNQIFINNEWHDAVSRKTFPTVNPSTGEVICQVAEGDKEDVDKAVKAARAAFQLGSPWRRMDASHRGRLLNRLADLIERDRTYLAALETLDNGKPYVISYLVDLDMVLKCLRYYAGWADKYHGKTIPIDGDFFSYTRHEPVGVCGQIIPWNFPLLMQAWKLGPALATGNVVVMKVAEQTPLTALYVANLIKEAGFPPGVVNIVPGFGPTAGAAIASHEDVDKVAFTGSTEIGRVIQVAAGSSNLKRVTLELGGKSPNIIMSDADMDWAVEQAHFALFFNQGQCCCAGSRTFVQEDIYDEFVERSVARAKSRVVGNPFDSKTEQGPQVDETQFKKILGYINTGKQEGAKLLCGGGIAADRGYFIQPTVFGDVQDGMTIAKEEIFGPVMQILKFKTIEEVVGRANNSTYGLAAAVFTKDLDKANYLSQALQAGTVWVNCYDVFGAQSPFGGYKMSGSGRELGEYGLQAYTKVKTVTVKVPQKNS
Particulars: Perez-Miller et al, 2010; cited from earlier work.

For assay [4], the system named is ALDH2 wild type mice. The assay is described as follows: von Frey hair test, carrageenan-induced acute pain model, wild type mice. The assay is classed as in vivo, mouse. Particulars: von Frey hair (1.20 gram in FIG. 1E), Alda-1 2 mg/kg s.c.
In assay [5] the test system is malondialdehyde (MDA). The assay is described as follows: Thiobarbituric acid-reactive substance assay (malondialdehyde) in paw homogenate. The following applies: rats, 3 hours after carrageenan; P<0.05. It counts as in vivo, rat. Here is the method: Thiobarbituric acid-reactive substance assay. Thiobarbituric acid-reactive substance (TBARS) was measured using an Oxi-Tek TBARS assay kit (ZeptoMetrix, Buffalo, N.Y.). In brief, 100 μL of plantar homogenates were mixed with 100 μl sodium dodecyl sulfonate solution. TBA/buffer reagent was prepared by mixing 0.5 g thiobarbituric acid with 50 ml acetic acid and 50 ml NaOH. TBA/buffer reagent (2.5 ml) was added to 200 μL sample/sodium dodecyl sulfonate mixture and incubated at 95° C. in capped tubes for 60 min. The samples were cooled to room temperature in an ice bath for 10 min and centrifuged at 3,000 g for 15 min. The supernatants were removed, and fluorescence intensity was measured in semi-microcuvettes in a fluorometer (Bio-Rad Laboratories, Hercules, Calif.). The concentration of TBARS was expressed in pmol/mg protein by interpolation from a standard curve of malondialdehyde at 0-200 pmol concentrations. The results are expressed as percent control.

Assay [6] concerns carrageenan-induced edema. The assay is described as follows: Edema assessment of the carrageenan-injected paw (plethysmometer). The assay is classed as in vivo, rat. The following applies: rats, 3 hr after carrageenan; Alda-1-treated versus vehicle-treated. As to the method: Edema Assessment. Inflammation-induced edema of the injected paw was assessed using a plethysmometer (Ugo Basile) (Clapper J R, et al., (2010) Anandamide suppresses pain initiation through a peripheral endocannabinoid mechanism. Nature neuroscience 13: 1265-1270; Van Arman C G, et al., (1965) Some details of the inflammation caused by yeast and carragenin. J Pharmacol Exp Ther 150: 328-333).
A general note: In the carrageenan paw model, swelling and tenderness develop within hours.

Each structure is given as a SMILES string. “Also recorded” adds a separate entry of the source.

`O=C(NCc1ccc2c(c1)OCO2)c1c(Cl)cccc1Cl` [Alda-1, N-(1,3-benzodioxol-5-ylmethyl)-2,6-dichlorobenzamide]: the “Increase of nociceptive threshold” value was 2 fold in assay [1] (prostaglandin E2-induced model, Alda-1 2 mg/kg s.c. 15 min before and 30 and 150 min after insult, tested 3 hours after insult); 2 fold in assay [2] (carrageenan-induced model, Alda-1 2 mg/kg s.c. 15 min before and 30 and 150 min after insult, tested 3 hours after insult). The “Nociceptive threshold (FIG. 1B)” value in assay [1] (prostaglandin E2 insult, Alda-1 2 mg/kg s.c., 3 hours after insult, P<0.001) was “significantly increased nociceptive threshold”; in assay [2] (carrageenan insult, Alda-1 2 mg/kg s.c., 3 hours after insult, P<0.001), “significantly increased nociceptive threshold”. Moreover, the “Nociceptive threshold when Alda-1 is given after the insult” value in assay [2] (Alda-1 2 mg/kg s.c. only 30 and 150 minutes after carrageenan, Randall-Selitto, P<0.0001, 2 mg/kg) is on record as “increased the nociceptive threshold; also recorded: significantly increased nociceptive threshold”. Further, in assay [2] (comparison to previous publication using the same rat hyperalgesia model (Chacur et al, 2003)), the “Reduction of carrageenan-induced hyperalgesia compared with atenolol or celecoxib” value is given as “more effective than atenolol or celecoxib”. For the same compound, the “Effect of Alda-1 on nociceptive threshold in the presence of naloxone” value in assay [2] (naloxone 1 mg/kg s.c. 10 minutes before each Alda-1 treatment, Alda-1 after carrageenan) was “not blunted”. In addition, the “Effect on activity of mutant ALDH2*2” value in assay [3] is reported as “corrects ALDH2 inactivity”. Moreover, in assay [4], the “Nociceptive threshold relative to vehicle-treated mice” value was “significantly increased pain threshold; also recorded: doubling the nociceptive threshold”. In assay [5], the “Malondialdehyde (MDA) levels in the inflamed paw” value was “reduced”. The “Carrageenan-induced increase in paw diameter (edema)” value in assay [6] is “no differences; also recorded: unaffected”.
